The numbers were not newly measured in patent publication US20080207756A1, “Bio-absorbable oil suspension” (ATRIUM MEDICAL CORPORATION, priority 2007, published 2008), which cites them from elsewhere.

The structures appear in SMILES notation. Counter-ions that a name gives are not always drawn.

The conditions of the data set: liquid Bupivacaine HCL without epinephrine.

`CCCCN1CCCCC1C(=O)Nc1c(C)cccc1C` (stereo not shown) [Bupivacaine HCL]: the half life was 2 to 3 h.
